From ChEMBL document CHEMBL5465560, “Selectivity Literature for EUbOPEN Chemogenomic Library” (2024)

Experiments:
[1] = target: T1, Muscle, skeletal receptor tyrosine-protein kinase (Homo sapiens) (UniProt O15146); test: Selectivity interaction (KinomeScan (DiscoverX)) EUB0000595a MUSK; conditions: at 10 µM
T1 sequence (whole entry): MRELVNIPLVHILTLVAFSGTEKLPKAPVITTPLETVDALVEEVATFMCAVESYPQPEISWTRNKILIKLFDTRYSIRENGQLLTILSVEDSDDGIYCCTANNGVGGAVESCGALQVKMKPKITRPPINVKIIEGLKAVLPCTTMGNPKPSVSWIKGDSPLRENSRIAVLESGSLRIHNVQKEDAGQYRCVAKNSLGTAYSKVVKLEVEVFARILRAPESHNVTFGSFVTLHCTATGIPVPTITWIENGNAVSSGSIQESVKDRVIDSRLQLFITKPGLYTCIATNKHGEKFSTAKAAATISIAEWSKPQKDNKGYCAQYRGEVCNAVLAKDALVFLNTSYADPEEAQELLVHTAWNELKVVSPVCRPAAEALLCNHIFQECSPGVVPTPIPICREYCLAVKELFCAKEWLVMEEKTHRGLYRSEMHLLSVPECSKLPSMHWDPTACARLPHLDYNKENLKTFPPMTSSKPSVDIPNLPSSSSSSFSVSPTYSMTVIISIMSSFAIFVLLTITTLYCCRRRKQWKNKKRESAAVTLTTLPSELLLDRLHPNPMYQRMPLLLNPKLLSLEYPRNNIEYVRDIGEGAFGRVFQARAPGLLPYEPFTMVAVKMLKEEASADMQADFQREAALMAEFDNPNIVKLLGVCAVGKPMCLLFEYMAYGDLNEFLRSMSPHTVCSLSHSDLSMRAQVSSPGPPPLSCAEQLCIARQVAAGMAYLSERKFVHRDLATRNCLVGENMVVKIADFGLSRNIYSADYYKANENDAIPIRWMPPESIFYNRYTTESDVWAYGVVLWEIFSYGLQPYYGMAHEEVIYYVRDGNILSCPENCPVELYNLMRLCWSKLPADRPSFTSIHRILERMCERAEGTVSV

[2] = target: T2, Membrane-associated tyrosine- and threonine-specific cdc2-inhibitory kinase (Homo sapiens) (UniProt Q99640); test: Selectivity interaction (Kinase panel (DSF assay)) EUB0001559a PKMYT1
T2 sequence (whole entry): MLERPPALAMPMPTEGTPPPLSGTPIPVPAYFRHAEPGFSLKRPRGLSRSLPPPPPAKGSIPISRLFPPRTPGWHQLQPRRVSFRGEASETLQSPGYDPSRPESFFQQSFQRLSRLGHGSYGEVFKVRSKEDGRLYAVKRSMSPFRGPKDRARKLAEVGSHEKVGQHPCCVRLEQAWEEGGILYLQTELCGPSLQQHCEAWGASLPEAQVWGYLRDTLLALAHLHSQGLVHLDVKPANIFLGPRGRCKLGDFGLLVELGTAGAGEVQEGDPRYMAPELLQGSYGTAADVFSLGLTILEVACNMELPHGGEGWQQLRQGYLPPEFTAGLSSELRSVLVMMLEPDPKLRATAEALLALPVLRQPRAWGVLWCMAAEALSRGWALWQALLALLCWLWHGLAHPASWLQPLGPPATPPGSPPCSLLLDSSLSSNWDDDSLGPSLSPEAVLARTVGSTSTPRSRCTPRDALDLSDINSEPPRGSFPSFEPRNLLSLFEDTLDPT

Histamine H1 receptor = Histamine H1 receptor (Homo sapiens, UniProt P35367); test: Selectivity interaction (GPCR panel (PDSP screen)) EUB0001079a HRH1; conditions: at 10 µM
Sequence of Histamine H1 receptor (P35367 whole entry): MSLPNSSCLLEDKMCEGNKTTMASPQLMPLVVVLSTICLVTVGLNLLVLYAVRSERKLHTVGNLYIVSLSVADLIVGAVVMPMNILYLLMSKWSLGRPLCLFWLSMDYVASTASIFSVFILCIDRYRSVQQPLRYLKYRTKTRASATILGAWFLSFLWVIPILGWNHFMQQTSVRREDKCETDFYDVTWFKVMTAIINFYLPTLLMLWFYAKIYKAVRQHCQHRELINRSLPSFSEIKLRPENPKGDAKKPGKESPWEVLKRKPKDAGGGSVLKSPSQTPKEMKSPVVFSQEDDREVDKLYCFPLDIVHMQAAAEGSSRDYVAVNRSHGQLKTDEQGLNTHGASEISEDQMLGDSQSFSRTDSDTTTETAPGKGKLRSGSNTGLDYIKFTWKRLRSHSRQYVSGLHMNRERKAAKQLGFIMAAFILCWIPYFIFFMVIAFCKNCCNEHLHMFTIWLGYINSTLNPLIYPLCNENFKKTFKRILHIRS

[3] = target: T3, Myotonin-protein kinase (Homo sapiens) (UniProt Q09013); test: Selectivity interaction (KinomeScan (DiscoverX)) EUB0001049a DMPK; conditions: at 1 µM
T3 sequence (whole entry): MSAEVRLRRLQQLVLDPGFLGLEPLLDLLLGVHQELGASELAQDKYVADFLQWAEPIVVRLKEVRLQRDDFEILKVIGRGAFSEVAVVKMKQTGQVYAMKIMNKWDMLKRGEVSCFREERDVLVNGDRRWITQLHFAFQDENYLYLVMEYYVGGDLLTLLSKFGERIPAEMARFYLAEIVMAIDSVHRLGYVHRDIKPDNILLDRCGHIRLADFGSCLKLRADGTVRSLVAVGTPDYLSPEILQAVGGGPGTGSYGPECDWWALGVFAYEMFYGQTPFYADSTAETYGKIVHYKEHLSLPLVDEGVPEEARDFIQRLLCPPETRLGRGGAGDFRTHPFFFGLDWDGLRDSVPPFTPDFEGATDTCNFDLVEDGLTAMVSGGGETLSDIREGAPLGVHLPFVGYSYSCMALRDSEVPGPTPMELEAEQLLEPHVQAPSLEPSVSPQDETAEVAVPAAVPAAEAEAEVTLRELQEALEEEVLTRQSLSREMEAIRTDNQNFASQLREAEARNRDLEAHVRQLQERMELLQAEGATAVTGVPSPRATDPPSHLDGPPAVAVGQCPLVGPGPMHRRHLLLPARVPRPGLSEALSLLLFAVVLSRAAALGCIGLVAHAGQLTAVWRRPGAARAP

[4] = target: T1, Muscle, skeletal receptor tyrosine-protein kinase (Homo sapiens); test: Selectivity interaction (ProQinase) EUB0000171b MUSK
[5] = target: Phosphatidylinositol 4-kinase alpha (Homo sapiens, UniProt P42356); test: Selectivity interaction (ActivX KiNativ screen (ex vivo kinase selectivity in human PBMCs)) EUB0001619a PI4KA; assay type: cell-based; conditions: PBMC, at 1 µM
Sequence of Phosphatidylinositol 4-kinase alpha (P42356 whole entry, looked up): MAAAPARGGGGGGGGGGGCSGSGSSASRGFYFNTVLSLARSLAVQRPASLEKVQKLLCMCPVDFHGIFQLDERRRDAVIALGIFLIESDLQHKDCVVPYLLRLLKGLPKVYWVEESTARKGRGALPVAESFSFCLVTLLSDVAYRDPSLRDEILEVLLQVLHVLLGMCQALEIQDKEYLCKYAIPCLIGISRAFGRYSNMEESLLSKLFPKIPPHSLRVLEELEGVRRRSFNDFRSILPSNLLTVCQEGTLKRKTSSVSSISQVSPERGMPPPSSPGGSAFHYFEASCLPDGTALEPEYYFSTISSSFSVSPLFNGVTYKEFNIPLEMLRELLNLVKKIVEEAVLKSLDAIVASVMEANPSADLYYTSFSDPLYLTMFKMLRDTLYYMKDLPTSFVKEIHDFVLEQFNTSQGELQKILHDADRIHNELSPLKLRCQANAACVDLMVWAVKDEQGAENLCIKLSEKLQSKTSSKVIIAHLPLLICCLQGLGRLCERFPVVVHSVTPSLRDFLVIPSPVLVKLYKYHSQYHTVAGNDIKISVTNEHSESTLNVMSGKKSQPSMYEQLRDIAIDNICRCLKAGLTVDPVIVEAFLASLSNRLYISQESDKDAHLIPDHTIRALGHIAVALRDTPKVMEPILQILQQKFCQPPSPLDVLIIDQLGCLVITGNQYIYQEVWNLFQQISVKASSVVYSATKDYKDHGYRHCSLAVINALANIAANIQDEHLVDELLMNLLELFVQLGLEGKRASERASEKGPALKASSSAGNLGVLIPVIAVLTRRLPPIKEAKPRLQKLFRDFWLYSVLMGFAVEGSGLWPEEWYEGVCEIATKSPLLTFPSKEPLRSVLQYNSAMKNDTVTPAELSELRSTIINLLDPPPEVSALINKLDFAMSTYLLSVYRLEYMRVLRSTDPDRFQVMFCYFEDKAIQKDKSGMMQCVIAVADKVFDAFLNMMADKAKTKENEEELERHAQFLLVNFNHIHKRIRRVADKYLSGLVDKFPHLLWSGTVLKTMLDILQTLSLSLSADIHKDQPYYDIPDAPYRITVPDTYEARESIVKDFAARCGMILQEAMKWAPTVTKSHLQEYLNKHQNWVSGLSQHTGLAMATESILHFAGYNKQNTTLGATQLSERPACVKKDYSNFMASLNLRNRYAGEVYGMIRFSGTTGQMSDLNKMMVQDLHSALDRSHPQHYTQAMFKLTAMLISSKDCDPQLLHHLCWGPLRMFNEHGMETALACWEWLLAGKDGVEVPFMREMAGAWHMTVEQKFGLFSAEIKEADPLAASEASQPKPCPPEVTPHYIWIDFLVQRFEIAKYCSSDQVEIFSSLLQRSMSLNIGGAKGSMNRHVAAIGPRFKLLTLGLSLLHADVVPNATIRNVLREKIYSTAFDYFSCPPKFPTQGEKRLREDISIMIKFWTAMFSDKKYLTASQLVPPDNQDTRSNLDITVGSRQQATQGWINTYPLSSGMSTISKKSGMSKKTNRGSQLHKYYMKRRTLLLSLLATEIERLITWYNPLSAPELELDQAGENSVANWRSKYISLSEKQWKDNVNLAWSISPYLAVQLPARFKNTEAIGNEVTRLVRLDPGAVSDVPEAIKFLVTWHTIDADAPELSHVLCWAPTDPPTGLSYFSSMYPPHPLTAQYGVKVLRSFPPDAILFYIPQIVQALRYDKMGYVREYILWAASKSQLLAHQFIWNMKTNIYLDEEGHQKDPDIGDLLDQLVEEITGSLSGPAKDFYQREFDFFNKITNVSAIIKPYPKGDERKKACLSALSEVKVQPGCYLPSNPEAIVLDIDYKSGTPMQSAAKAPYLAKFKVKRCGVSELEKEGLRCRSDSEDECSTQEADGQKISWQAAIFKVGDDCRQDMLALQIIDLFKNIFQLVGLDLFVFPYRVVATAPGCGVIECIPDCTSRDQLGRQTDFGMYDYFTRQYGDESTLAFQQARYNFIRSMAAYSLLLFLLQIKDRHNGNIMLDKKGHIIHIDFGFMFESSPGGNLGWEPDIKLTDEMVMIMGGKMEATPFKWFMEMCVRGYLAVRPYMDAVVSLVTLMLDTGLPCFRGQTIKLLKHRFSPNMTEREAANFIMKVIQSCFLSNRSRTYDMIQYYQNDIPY

[6] = target: Calcium/calmodulin-dependent protein kinase type 1 (Homo sapiens) (UniProt Q14012); test: Selectivity interaction (ActivX KiNativ screen (kinase selectivity in THP-1 cell lysates)) EUB0000639a CAMK1; assay type: subcellular; conditions: lysate, at 0.01 µM
Sequence of Calcium/calmodulin-dependent protein kinase type 1 (Homo sapiens) (Q14012 whole entry, looked up): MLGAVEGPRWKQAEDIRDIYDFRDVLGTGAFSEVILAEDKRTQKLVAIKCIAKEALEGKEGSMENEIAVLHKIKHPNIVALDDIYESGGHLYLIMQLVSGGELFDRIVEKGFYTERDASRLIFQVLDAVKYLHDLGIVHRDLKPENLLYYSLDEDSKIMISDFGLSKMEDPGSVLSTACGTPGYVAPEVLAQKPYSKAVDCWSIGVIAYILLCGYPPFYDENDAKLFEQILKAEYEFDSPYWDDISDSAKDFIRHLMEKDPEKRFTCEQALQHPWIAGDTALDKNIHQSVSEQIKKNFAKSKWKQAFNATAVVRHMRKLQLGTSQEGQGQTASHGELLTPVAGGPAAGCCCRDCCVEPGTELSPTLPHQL

[7] = target: Wee1-like protein kinase (Homo sapiens) (UniProt P30291); test: Selectivity interaction (KinomeScan (DiscoverX)) EUB0000092b WEE1; conditions: at 10 µM
Sequence of Wee1-like protein kinase (Homo sapiens) (P30291 whole entry, looked up): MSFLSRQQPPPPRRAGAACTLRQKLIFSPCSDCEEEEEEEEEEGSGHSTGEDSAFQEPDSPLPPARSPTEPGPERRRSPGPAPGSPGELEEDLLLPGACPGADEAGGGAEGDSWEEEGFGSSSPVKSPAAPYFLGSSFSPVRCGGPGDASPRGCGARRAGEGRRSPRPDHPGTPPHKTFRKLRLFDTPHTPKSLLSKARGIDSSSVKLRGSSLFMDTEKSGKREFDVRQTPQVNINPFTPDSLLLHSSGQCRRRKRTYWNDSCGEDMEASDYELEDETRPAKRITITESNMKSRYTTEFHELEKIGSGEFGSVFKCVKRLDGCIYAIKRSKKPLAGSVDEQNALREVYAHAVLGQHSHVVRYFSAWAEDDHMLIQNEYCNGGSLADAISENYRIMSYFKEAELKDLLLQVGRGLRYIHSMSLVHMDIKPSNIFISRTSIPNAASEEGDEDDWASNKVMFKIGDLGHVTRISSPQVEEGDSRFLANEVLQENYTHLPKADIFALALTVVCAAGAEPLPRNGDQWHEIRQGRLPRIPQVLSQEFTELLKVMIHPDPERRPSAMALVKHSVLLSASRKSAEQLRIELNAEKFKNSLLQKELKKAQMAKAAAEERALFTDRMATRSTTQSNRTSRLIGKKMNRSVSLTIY

COCC(=O)NC/C=C/c1ccc2ncnc(Nc3ccc(Oc4ccc(C)nc4)c(C)c3)c2c1 [CP-724714]
% of control [1]: 100%

CN(C(=O)c1cnn2cccnc12)c1cc2c(cc1N1CCOCC1)C(=O)N(C[C@@H](F)C(C)(C)O)C2
dTM [2]: 0.4 K

Nc1cnc(N2CCc3cc(S(=O)(=O)Nc4c(F)cc(Cl)cc4F)cc(N4CCCC4=O)c32)nc1 [TP-020n]
% of inhibition (Histamine H1 receptor): -2.69%

COc1cc(Nc2nc(C)cc(-c3cnn4nc(OC)ccc34)n2)cc(C(F)(F)F)c1
% of control [3]: 100%

C=CC(=O)Nc1cccc(C(=O)Nc2ccc(Nc3cc(-c4[nH]c(SC)nc4C)ccn3)cc2)c1
% of control ([4]; at 1 µM): 74% | % of control ([4]; at 5 µM): 31%

N#Cc1cccc(-c2c[nH]c3ncnc(N4CCOCC4)c23)c1
% of inhibition [5]: 6%

CC[C@@H]1[C@H](F)C(=O)N[C@@H]1COc1nccc2cc(C(N)=O)c(OC)cc12 [ZIMLOVISERTIB]
% of inhibition [6]: 2.7%

CCC(=O)N1CCN(c2ccc(-n3c(=O)ccc4cnc5ccc(-c6cnc7ccccc7c6)cc5c43)cc2C(F)(F)F)CC1
% of control [7]: 42%
